Test results reported in US9873920B2, “Method for evaluating side-effect onset risk in anticancer drug treatment, including detecting MUC4 gene polymorphism” (SAITAMA MEDICAL UNIVERSITY, priority 2013, dated 2018).
Read-outs that look alike come from different tables or passages of the source.

How the values were obtained:
[1] = cited from earlier work
[2] = cited from earlier work; remark: listed apart in the source
[3] = human, in vivo
Excerpt: It should be noted, of course, that death due to the side effect of drugs is a serious problem also in countries other than Japan, apart from its frequency.

Row | SMILES | frequency of development of ILD in Chinese relative to Japanese ([1]; Chinese versus Japanese) | frequency of development of ILD in Westerners relative to the frequency in Japanese ([1]; Westerners versus Japanese) | frequency of development of interstitial lung disease (ILD) ([1]; in Japanese) | frequency of diffuse alveolar damage ([2]; in Japanese) [%] | frequency of diffuse alveolar damage ([2]; surveys on Asians) [%] | times higher frequency of diffuse alveolar damage in Japanese [3]
1 | C#Cc1cccc(Nc2ncnc3cc(OCCOC)c(OCCOC)cc23)c1 [erlotinib] | not more than the frequency of development in Japanese | not more than 1/10 | about 4% | 2.7 | 0.2 | not less than 10 times
2 | COc1cc2ncnc(Nc3ccc(F)c(Cl)c3)c2cc1OCCCN1CCOCC1 [gefitinib] |  |  |  |  |  | not less than 10 times
